# Assay results as given in US11780826B2 (Amgen Inc., priority 2017, dated 2023).
# System: Bovine cardiac myofibrils
# Assay: In vitro model of dose-dependent myofibril ATPase modulation (AC1.4, pyruvate kinase/lactate dehydrogenase-coupled ATPase assay at pCa25)
# Type: biochemical
# Settings: concentration at which ATPase activity was 1.4-fold higher than the bottom of the dose curve, mean of a minimum of two independent tests
# Summary of the method: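 ATP turnover tracked as NADH absorbance loss at 340 nm, coupled via pyruvate kinase/lactate dehydrogenase, with 1 mM ATP, 2 mM MgCl2 and 12 mM K-PIPES at pH 6.80 (22° C) under EGTA/CaCl2 calcium buffering. Substrate was detergent-treated bovine cardiac myofibrils; 4-parameter curve fit, AC1.4 averaged over at least two runs.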
row,AC1.4 [µM],Structure (SMILES)
1,7.156,"CC(C)(C)[C@@H](NC(=O)[C@H]1CCCN1C(=O)[C@H]1CCCN(S(=O)(=O)N2CC(C#N)C2)C1)c1ccc(C(F)(F)F)cc1 [Example 740, 1-(((3S)-1-((3-cyano-1-azetidinyl)sulfonyl)-3-piperidinyl)carbonyl)-N-((1R)-2,2-dimethyl-1-(4-(trifluoromethyl)phenyl)propyl)-D-prolinamide]"
2,7.1615,"Cc1ccc(C(F)(F)F)c(CNC(=O)[C@H]2CCCN2C(=O)[C@H]2CCCN(S(=O)(=O)N3CC(C#N)C3)C2)c1 [Example 741, 1-(((3S)-1-((3-cyano-1-azetidinyl)sulfonyl)-3-piperidinyl)carbonyl)-N-(5-methyl-2-(trifluoromethyl)benzyl)-D-prolinamide]"
3,7.2,"CS(=O)(=O)c1cccc(C(=O)N2CCC[C@@H]2C(=O)N[C@@H]2CCc3cc(C(F)(F)F)ccc32)c1 [Example 742, 1-(3-(methylsulfonyl)benzoyl)-N-((1R)-5-(trifluoromethyl)-2,3-dihydro-1H-inden-1-yl)-D-prolinamide]"
4,7.2015,"O=C(NCc1ccc(C(F)(F)F)cc1)[C@H]1CCCN1C(=O)[C@H]1CCCN(S(=O)(=O)N2CC3(C2)CC(O)(C(F)(F)F)C3)C1 [Example 743, 1-(((3S)-1-((6-hydroxy-6-(trifluoromethyl)-2-azaspiro[3.3]hept-2-yl)sulfonyl)-3-piperidinyl)carbonyl)-N-(4-(trifluoromethyl)benzyl)-D-prolinamide]"
5,7.232,"CN(C)S(=O)(=O)N1CCC[C@H](C(=O)N2CCC[C@@H]2C(=O)NCc2ccc(C(F)(F)F)cc2)C1 [Example 744, 1-(((3S)-1-(dimethylsulfamoyl)-3-piperidinyl)carbonyl)-N-(4-(trifluoromethyl)benzyl)-D-prolinamide]"
6,7.244,"O=C(N[C@@H](c1ccc(C(F)(F)F)cc1F)C1CC1)[C@H]1CCCN1C(=O)c1cccc(-c2cc[nH]n2)c1 [Example 745, N-((R)-cyclopropyl(2-fluoro-4-(trifluoromethyl)phenyl)methyl)-1-(3-(1H-pyrazol-3-yl)benzoyl)-D-prolinamide]"
7,7.268,"N#CC1CN(S(=O)(=O)N2CCC[C@H](C(=O)N3CCC[C@@H]3C(=O)NCc3ccccc3C(F)(F)F)C2)C1 [Example 746, 1-(((3S)-1-((3-cyano-1-azetidinyl)sulfonyl)-3-piperidinyl)carbonyl)-N-(2-(trifluoromethyl)benzyl)-D-prolinamide]"
8,7.287,"COc1cc(F)c([C@H](NC(=O)[C@H]2C[C@H]3C[C@H]3N2C(=O)c2cccc(S(C)(=O)=O)c2)C2CC2)cc1F [Example 747, (1R,3R,5R)-N-((R)-cyclopropyl(2,5-difluoro-4-methoxyphenyl)methyl)-2-(3-(methylsulfonyl)benzoyl)-2-azabicyclo[3.1.0]hexane-3-carboxamide]"
9,7.314,"CC(C)c1cc(C(=O)N2[C@@H](C(=O)N[C@@H](c3ccc(C(F)(F)F)cc3F)C3COC3)C[C@H]3C[C@H]32)ccn1 [Example 748, (1R,3R,5R)-N-((R)-(2-fluoro-4-(trifluoromethyl)phenyl)(3-oxetanyl)methyl)-2-((2-(2-propanyl)-4-pyridinyl)carbonyl)-2-azabicyclo[3.1.0]hexane-3-carboxamide]"
10,7.3175,"C#CCN(C)S(=O)(=O)c1cccc(C(=O)N2CCC[C@@H]2C(=O)N[C@H](C)c2ccc(C(F)(F)F)cc2)c1 [Example 749, 1-(3-(methyl(2-propyn-1-yl)sulfamoyl)benzoyl)-N-((1R)-1-(4-(trifluoromethyl)phenyl)ethyl)-D-prolinamide]"
11,7.3925,"CS(=O)(=O)c1cccc(C(=O)N2CC[C@@H]3C[C@]32C(=O)N[C@@H](c2ccc(C(F)(F)F)cc2F)C2CC2)c1 [Example 751, (1R,5R)-N-((R)-cyclopropyl(2-fluoro-4-(trifluoromethyl)phenyl)methyl)-2-(3-(methylsulfonyl)benzoyl)-2-azabicyclo[3.1.0]hexane-1-carboxamide]"
12,7.417,"CS(=N)(=O)c1cccc(C(=O)N2[C@@H](C(=O)N[C@@H](c3cc(F)c(Cl)cc3F)C3CC3)C[C@H]3C[C@H]32)c1 (stereo partly drawn) [Example 752, (1R,3R,5R)—N—((R)-(4-chloro-2,5-difluorophenyl)(cyclopropyl)methyl)-2-(3-(S-methylsulfonimidoyl)benzoyl)-2-azabicyclo[3.1.0]hexane-3-carboxamide]"

# Second part, the compound before the results:
row,Structure (SMILES),AC1.4 [µM]
1,"O=C(N[C@@H](c1ccc(C(F)(F)F)cc1F)C1CC1)[C@H]1CCCN1C(=O)c1cccc(-c2ccsc2)c1 [Example 726, N-((R)-cyclopropyl(2-fluoro-4-(trifluoromethyl)phenyl)methyl)-1-(3-(3-thiophenyl)benzoyl)-D-prolinamide]",6.547
2,"Cc1ccc(C(=O)N2[C@@H](C(=O)N[C@@H](c3ccc(C(F)(F)F)cc3F)C3COC3)C[C@H]3C[C@H]32)cc1S(C)(=O)=O [Example 727, (1R,3R,5R)-N-((R)-(2-fluoro-4-(trifluoromethyl)phenyl)(3-oxetanyl)methyl)-2-(4-methyl-3-(methylsulfonyl)benzoyl)-2-azabicyclo[3.1.0]hexane-3-carboxamide]",6.61
3,"CS(=O)(=O)c1cccc(C(=O)N2[C@@H](C(=O)N[C@@H](c3ccc(F)cc3F)C3COC3)C[C@H]3C[C@H]32)c1 [Example 728, (1R,3R,5R)-N-((R)-(2,4-difluorophenyl)(3-oxetanyl)methyl)-2-(3-(methylsulfonyl)benzoyl)-2-azabicyclo[3.1.0]hexane-3-carboxamide]",6.701
4,"CC(NC(=O)[C@H]1CCCN1C(=O)[C@H]1CCCN(S(=O)(=O)N2CC(C#N)C2)C1)c1ccc(F)cc1 (stereo partly drawn) [Example 729, 1-(((3S)-1-((3-cyano-1-azetidinyl)sulfonyl)-3-piperidinyl)carbonyl)-N-((1R)-1-(4-fluorophenyl)ethyl)-D-prolinamide,1-(((3S)-1-((3-cyano-1-azetidinyl)sulfonyl)-3-piperidinyl)carbonyl)-N-((1S)-1-(4-fluorophenyl)ethyl)-D-prolinamide]",6.7185
5,"CC1(O)CN(S(=O)(=O)N2CCC[C@H](C(=O)N3CCC[C@@H]3C(=O)NCc3ccc(C(F)(F)F)cc3)C2)C1 [Example 730, 1 (((3S)-1-((3-hydroxy-3-methyl-1-azetidinyl)sulfonyl)-3-piperidinyl)carbonyl)-N-(4-(trifluoromethyl)benzyl)-D-prolinamide]",6.7333
6,"CS(=O)(=O)c1cc(C(=O)N2[C@@H](C(=O)N[C@@H](c3cc(F)c(C(F)(F)F)cc3F)C3CC3)C[C@@H]3C[C@@H]32)ccn1 [Example 731, (1S,3R,5S)-N-((R)-cyclopropyl(2,5-difluoro-4-(trifluoromethyl)phenyl)methyl)-2-((2-(methylsulfonyl)-4-pyridinyl)carbonyl)-2-azabicyclo[3.1.0]hexane-3-carboxamide]",6.763
7,"CS(=O)(=O)c1cccc(C(=O)N2CC[C@H]2C(=O)N[C@@H](c2cc(F)c(Cl)cc2F)C2CC2)c1 [Example 732, (2S)-N-((R)-(4-chloro-2,5-difluorophenyl)(cyclopropyl)methyl)-1-(3-(methylsulfonyl)benzoyl)-2-azetidinecarboxamide]",6.7885
8,"N#CC1CN(S(=O)(=O)N2CCC[C@H](C(=O)N3CCC[C@@H]3C(=O)N[C@@H](CO)c3ccc(Cl)cc3)C2)C1 [Example 733, N-((1R)-1-(4-chlorophenyl)-2-hydroxyethyl)-1-(((3S)-1-((3-cyano-1-azetidinyl)sulfonyl)-3-piperidinyl)carbonyl)-D-prolinamide]",6.8025
9,"CC(C)(C)OC1CN(S(=O)(=O)N2CCC[C@H](C(=O)N3CCC[C@@H]3C(=O)NCc3ccc(C(F)(F)F)cc3)C2)C1 [Example 734, 1-(((3S)-1-((3-tert-butoxy-1-azetidinyl)sulfonyl)-3-piperidinyl)carbonyl)-N-(4-(trifluoromethyl)benzyl)-D-prolinamide]",6.866
10,"CCCCCC1CN(S(=O)(=O)N2CCC[C@H](C(=O)N3CCC[C@@H]3C(=O)NCc3ccc(C(F)(F)F)cc3)C2)C1 [Example 735, 1-(((3S)-1-((3-pentyl-1-azetidinyl)sulfonyl)-3-piperidinyl)carbonyl)-N-(4-(trifluoromethyl)benzyl)-D-prolinamide]",7.0265
11,"Cc1cc(C(=O)N2[C@@H](C(=O)N[C@@H](c3cc(F)c(Cl)cc3F)C3CC3)C[C@H]3C[C@H]32)ccn1 [Example 736, (1R,3R,5R)-N-((R)-(4-chloro-2,5-difluorophenyl)(cyclopropyl)methyl)-2-((2-methyl-4-pyridinyl)carbonyl)-2-azabicyclo[3.1.0]hexane-3-carboxamide]",7.041
12,"O=C(N[C@@H](c1ccc(C(F)(F)F)cc1F)C1CC1)[C@H]1CCCN1C(=O)c1cccc(-c2cn[nH]c2)c1 [Example 737, N-((R)-cyclopropyl(2-fluoro-4-(trifluoromethyl)phenyl)methyl)-1-(3-(1H-pyrazol-4-yl)benzoyl)-D-prolinamide]",7.053
13,"CC(C)(C)c1cc(C(=O)N2[C@@H](C(=O)N[C@@H](c3ccc(Cl)cc3F)C3COC3)C[C@H]3C[C@H]32)ccn1 [Example 738, (1R,3R,5R)-N-((R)-(4-chloro-2-fluorophenyl)(3-oxetanyl)methyl)-2-((2-(2-methyl-2-propanyl)-4-pyridinyl)carbonyl)-2-azabicyclo[3.1.0]hexane-3-carboxamide]",7.0545
14,"O=C(NCc1ccc(C(F)(F)F)cc1)[C@H]1CCCN1C(=O)[C@H]1CCCN(S(=O)(=O)N2CC(C3CCOC3)C2)C1 (stereo partly drawn) [Example 739, (2R)-1-((3S)-1-((3-(tetrahydrofuran-3-yl)azetidin-l-yl)sulfonyl)piperidine-3-carbonyl)-N-(4-(trifluoromethyl)benzyl)pyrrolidine-2-carboxamide]",7.1325
